Here are results for 7 compounds from patent publication US20220117266A1, “NICKEL CHELATION THERAPY” (priority 2019, published 2022).

SMILES strings stand for the structures. Values joined by “and” are separate entries in the source; they are usually repeats but may differ in a detail not shown here. Equal values may be shown once. Read-outs that look alike come from different tables or passages of the source. Where only a bound is given, the exact number is not on record here.

For orientation: MBC means the lowest tested concentration that kills the bacteria rather than only halting them. As usually defined, the MIC is the least concentration at which growth counts as inhibited.

For data set [1], the system named is C. jejuni (strain 81-176, ATCC BAA-2151). The data set can be described thus: Growth inhibition, solid plates (CFU). It is filed as cell-based, Campylobacter jejuni. Particulars: 0.5 mM metal salt in combination with 2 mM DMG.
The next data set concerns C. jejuni 81-176. As to the kind of experiment: Growth inhibition, liquid 96-well checkerboard (OD600, MIC, MBC). It is filed as cell-based, Campylobacter jejuni. Particulars: for OD600: DMG 0 mM, 24 h. Here is the method: Growth inhibition assays: liquid (96-well) plates experiments. This type of experiment can only be conducted with C. jejuni since the gas requirement for C. concisus (H2-enriched microaerobic) is not compatible with the use of 96-well plates. C. jejuni cells were grown as described above, harvested, and resuspended in sterile NaCl (8 g/L) to an OD600 of 0.1, corresponding approximately to 5×10^8 to 1×10^9 cells/mL. […] Wells were serially (2-fold) diluted in each direction (horizontal and vertical) to introduce all combinations. Wells with no DMG or metal compounds served as (positive) growth controls, and wells with no bacteria served as background (negative growth) controls. A typical protocol and loading plan are described in Table 7. The starting inoculum was at OD600 of 0.05, which corresponds approximately to 2.5×10^8 cells/mL to 5×10^8 cells/mL. After 24 hours incubation under microaerobic conditions at 37° C., OD600 was recorded using a 96 well-plate reader (Microtek). […] Resulting growth (or lack of growth) was examined after overnight culturing; the lowest concentration that inhibits 99.9% of the original culture was defined as MBC. MIC and MBC were determined based on tests (plates) done in triplicate.

The target of data set [2] is T1, Aβ40 peptide (Homo sapiens, UniProt P05067). The data set can be described thus: Thioflavin T (ThT)-based Aβ40 aggregation assay. The class given is biochemical. The arrangement: purchased rPeptides, Watkinsville, Ga., USA kit #A-1180-1; host or cells: E. coli. Conditions: for increase of average Aβ40 aggregation rate compared to no supplemental metal control: pH 7.4; for Relative Aβ40 aggregation rate (% control): DMG 0 μM; for Aβ40 peptide aggregation under all pHs tested: pH 6.5, 7.5 or 8.5, 25 mM Aβ40, CuSO4 25 mM, ZnSO4 10 mM or DMG 100 mM (so in the source). On the procedure:
Amyloid Beta aggregation. […] This kit contained human recombinant Aβ40 peptide (>97% pure, as determined by manufacturer's HPLC) with the following sequence […] (SEQ ID NO:1), as provided by the manufacturer. […] The aggregation of Aβ40, was shown by the increase in fluorescence (lex=440 nm/lem=485 nm) over time, was followed for 60 min or 120 min, with reading every three or five min, using a Synergy MX reader (Biotek, Winooski, Vt.). A ThT-only background control (no Aβ40 peptide) was included in triplicate in all experiments and subtracted from all readings. The aggregation rate, defined as the increase in fluorescence per min (RFU/min), was calculated by using the formula [A(440,485) at T40min)−A(440,485) at T20min]/20.
Target sequence in this assay (P05067 672-711): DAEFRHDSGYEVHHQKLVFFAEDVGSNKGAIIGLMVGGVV

Data set [3] deals with C. jejuni (strain NCTC 11168). The data set can be described thus: C. jejuni-chicken colonization experiment. The class given is in vivo, chickens. Particulars: Experiment 1, ad libitum CuSO4 (0.2 mM), 9 days p.i. Here is the method:
Since chickens are natural hosts for C. jejuni, and chicken meat is one of the main sources of campylobacteriosis in humans, it was important to test the efficacy of DMG alone or in combination with copper in this animal model. Two independent trials were conducted, as described in FIG. 22. In both trials, the treatment was administered through ad libitum drinks, starting two to three days before C. jejuni inoculation (with strain NCTC 11168), and going through the end of each experiment. […] Nine days after inoculation with C. jejuni, chickens were euthanized, and their ceca were isolated for bacterial count. […] The treatment was administered two days before inoculation with C. jejuni, and chicken ceca were harvested eight days after inoculation.

The conditions of data set [4]: mouse, in vivo.
The target of data set [5] is T1, Aβ40 peptide. The data set can be described thus: Isothermal titration calorimetry. The class given is binding. The arrangement: purchased rPeptides, Watkinsville, Ga., USA kit #A-1180-1; host or cells: E. coli; DS (entropy): unit not given here. Particulars: 20 μM Aβ40, 25° C. An excerpt: Nickel binding to human recombinant Aβ40 peptide is confirmed by isothermal titration calorimetry. Isothermal titration calorimetry (ITC) has been already used to analyze copper or zinc binding to various Aβ peptides, including Ab40 (Talmard et al. Biochemistry 46, 13658-13666 (2007); Sacco et al. JBIC Journal of Biological Inorganic Chemistry 17, 531-541 (2012); Hatcher et al. The journal of physical chemistry B 112, 8160-8164 (2008)). In the current study, we used ITC to determine whether nickel can bind the Aβ40 peptide. The peptide (same used in ThT-based aggregation assays) was present in the sample cell at a concentration of 20 μM. Twenty injections of NiSO4 (1 mM solution, 5 μM increments in sample cell) were performed every 5 min under constant stirring (350 rpm) at 25° C., and the heat release was measured (FIG. 9). The heat release profile indicates Ni binding to the peptide (FIG. 9, top Panel).
Isothermal Titration Calorimetry. […] Briefly, 1 mg of lyophilized Aβ40 peptide (#A-1157-2, rPeptides) was resuspended with 1% NH4OH to a concentration of 250 μM, sonicated for 15-20 sec, before being diluted to a final concentration of 20 μM Aβ40 using ddH2O and TBS 10×, pH 7.4 (working buffer: NH4OH 0.2%, TBS 1×, pH 7.4 (“NTBS”)). […] All samples were degassed for 15 min at 25° C. before use. Titration was initiated using a program for 20 injections (2.38 μL each, every 5 min) with continuous stirring (350 rpm) at constant temperature (25° C.). ITC data were analyzed using NanoAnalyze 1.2 software (TA Instruments). Data obtained with the control experiment (Aβ40 peptide in sample cell, buffer in syringe) were subtracted from each experiment to account for any injection-related heat change.
Target sequence in this assay (P05067 672-711): as above
(ITC needs no label: the signal is the heat of the interaction.)

The target in data set [6] is T1, Aβ40 peptide. Set-up: yields Aβ peptides of various lengths (38, 40 or 42 amino acids). Particulars: Talmard et al. 2007; read-out: Kd previously reported; cited from earlier work.
Target sequence in this assay (P05067 672-711 limits assumed): as the sequence (P05067 672-711) above
A short description of data set [7]: Acute oral LD50 (literature). It is filed as in vivo, mice.
The conditions of data set [8]: cited from earlier work.
The mark [9] stands for this setting: 100 mM metal (so in the source).
Setting [10] is: experiment A, supplemental metal 10 μM.
[11] abbreviates: experiment B, supplemental metal 100 μM.

On to `[Cl-].[Cl-].[Co+2]` [CO^2+, CoCl2, reference compound], for which, in data set [1], the “effect on C. jejuni growth” value was “no noticeable effect”. For the same compound, the MBC in the data set with C. jejuni 81-176 (metal with DMG 0 mM) was greater than 1020 µM; in the data set with C. jejuni 81-176 (metal with DMG 0.5 mM) it was greater than 1020 µM; with C. jejuni 81-176 (metal with DMG 1 mM), greater than 1020 µM; in the data set on C. jejuni 81-176 (metal with DMG 4 mM), 512 µM. For the same compound, the MIC in the data set on C. jejuni 81-176 (metal with DMG 0 mM) is greater than 1020 µM; in the data set with C. jejuni 81-176 (metal with DMG 0.5 mM), greater than 1020 µM; with C. jejuni 81-176 (metal with DMG 1 mM), greater than 1020 µM; in the data set with C. jejuni 81-176 (metal with DMG 4 mM), 256 µM.
For `O=S(=O)([O-])[O-].[Cu+2]` [Cu, CuSO4, reference compound], the “increase of average Aβ40 aggregation rate compared to no supplemental metal control” value (from here on “increase … to no supplemental metal control”) at Aβ40 peptide [2] (10 mM metal (so in the source)) and at Aβ40 peptide [2] (setting [9]) was “no significant effect” throughout. Also, the “Relative Aβ40 aggregation rate (% control)” value was 103 ± 19 % control on Aβ40 peptide [2] (setting [10]) and 77 ± 2 % control at Aβ40 peptide [2] (experiment C, supplemental metal 100 μM). At Aβ40 peptide [2], the “Aβ40 peptide aggregation under all pHs tested” value is “negligible”. In addition, the “C. jejuni Average CFUs per g of cecum (x10^8)” value in data set [3] is reported as 5.95 x10^8 CFUs per g of cecum. For the same compound, the “Chickens Cj-free (n=)” value in data set [3] (total n=4) is given as 0. For the same compound, the “Chickens Colonized (n=)” value in data set [3] (total n=4) is on record as 4. Also, the OD600 with C. jejuni 81-176 (CuSO4 2 uM) was 0.29; in the data set on C. jejuni 81-176 (CuSO4 4 uM) it was 0.23; in the data set on C. jejuni 81-176 (CuSO4 8 uM), 0.31; with C. jejuni 81-176 (CuSO4 16 uM), 0.38; with C. jejuni 81-176 (CuSO4 32 uM), 0.26; in the data set on C. jejuni 81-176 (CuSO4 64 uM) it was 0.27. For the same compound, the OD600 in the data set on C. jejuni 81-176 (CuSO4 128 uM) is given as 0.23; in the data set with C. jejuni 81-176 (CuSO4 256 uM), 0.38; with C. jejuni 81-176 (CuSO4 512 uM) it was 0.28; in the data set on C. jejuni 81-176 (CuSO4 1024 uM), 0.43. Moreover, the MBC in the data set with C. jejuni 81-176 (metal with DMG 0 mM) and in the data set with C. jejuni 81-176 (metal with DMG 0.5 mM) was greater than 1020 µM in each case. Moreover, the MIC in the data set on C. jejuni 81-176 (metal with DMG 0 mM) was greater than 1020 µM; with C. jejuni 81-176 (metal with DMG 0.5 mM) it was 1020 µM.
Regarding `CC(=NO)C(C)=NO` [D-1885, Dimethylglyoxime], in data set [4], the “condition of animals given chelator alone” value is given as “appeared ill”.
With `O=S(=O)([O-])[O-].[Mn+2]` [MnSO4], the “effect on C. jejuni growth” value in [1] was “no noticeable effect”.
As for `O=S(=O)([O-])[O-].[Ni+2]` [Ni, NiSO4, reference compound], the “increase … to no supplemental metal control” value at Aβ40 peptide [2] (10 mM metal (so in the source)) came out at 2.5 fold; at Aβ40 peptide [2] (setting [9]) it was 5.7 fold. Moreover, the “Ni(II)-induced Aβ40 aggregation at pH 6.5, compared to pH 7.5” value on Aβ40 peptide [2] (NiSO4 25 mM (so in the source)) is “faster”. At Aβ40 peptide [2] (NiSO4 25 mM (so in the source)), the “Ni(II)-induced Aβ40 aggregation at pH 8.5” value is reported as “absent”. Moreover, the “Relative Aβ40 aggregation rate (% control)” value at Aβ40 peptide [2] (setting [10]) was determined as 252 ± 8 % control; at Aβ40 peptide [2] (setting [11]), 567 ± 61 % control. Besides, the “effect on C. jejuni growth” value in data set [1] was “no noticeable effect”. For the same compound, at Aβ40 peptide [5], the “DH (enthalpy)” value was -1.2 kcal/mol. Also, the “DS (entropy)” value on Aβ40 peptide [5] is recorded as 86. In addition, the apparent stoichiometry at Aβ40 peptide [5] is recorded as 0.7 mole Ni(II) per mole of Aβ40 p. Moreover, on Aβ40 peptide [5] (pH 7.4, read-out: apparent Kd), the Kd was 4.2 µM and ~4.2 µM. For the same compound, the MBC with C. jejuni 81-176 (metal with DMG 0 mM), with C. jejuni 81-176 (metal with DMG 0.5 mM), with C. jejuni 81-176 (metal with DMG 1 mM), in the data set on C. jejuni 81-176 (metal with DMG 2 mM) and in the data set on C. jejuni 81-176 (metal with DMG 4 mM) was greater than 1020 µM throughout. The MIC in the data set with C. jejuni 81-176 (metal with DMG 0 mM), with C. jejuni 81-176 (metal with DMG 0.5 mM), in the data set on C. jejuni 81-176 (metal with DMG 1 mM), in the data set with C. jejuni 81-176 (metal with DMG 2 mM) and in the data set on C. jejuni 81-176 (metal with DMG 4 mM) was greater than 1020 µM each time.
As for `O=S(=O)([O-])[O-].[Zn+2]` [Zn, ZnSO4, reference compound], the “increase … to no supplemental metal control” value on Aβ40 peptide [2] (10 mM metal (so in the source)) was found to be 5 fold; on Aβ40 peptide [2] (setting [9]), 14 fold. For the same compound, the “Relative Aβ40 aggregation rate (% control)” value on Aβ40 peptide [2] (setting [10]) is 505 ± 29 % control; on Aβ40 peptide [2] (setting [11]), 1423 ± 258 % control. Besides, the “Aβ40 peptide aggregation under all pHs tested” value on Aβ40 peptide [2] is “fastest and sharpest increase in fluorescence”. Moreover, the “effect on C. jejuni growth” value in data set [1] was “no noticeable effect”. For the same compound, the Kd at Aβ40 peptide [6] is 7 ± 3 µM. In addition, the MBC in the data set with C. jejuni 81-176 (metal with DMG 0 mM), with C. jejuni 81-176 (metal with DMG 0.5 mM), with C. jejuni 81-176 (metal with DMG 1 mM), in the data set with C. jejuni 81-176 (metal with DMG 2 mM) and with C. jejuni 81-176 (metal with DMG 4 mM) was greater than 1024 µM each time. Further, the MIC in the data set on C. jejuni 81-176 (metal with DMG 0 mM), in the data set on C. jejuni 81-176 (metal with DMG 0.5 mM), with C. jejuni 81-176 (metal with DMG 1 mM), in the data set on C. jejuni 81-176 (metal with DMG 2 mM) and in the data set on C. jejuni 81-176 (metal with DMG 4 mM) was 512 µM each time.
Turning to `CCN(CC)C(=S)SSC(=S)N(CC)CC` [disulfiram], the “LD50 amount per mouse” value in [7] is “approximately 20 μg”. Besides, the “acute oral LD50” value in data set [8] is listed as 1.013 mg/kg.
